Test results taken from patent US20210000730A1, “COMPOSITION COMPRISING OPTICAL CLEARING AGENT FOR IMPROVING OPTICAL CHARACTERISTIC OF SKIN” (LG HOUSEHOLD & HEALTH CARE LTD., priority 2018, published 2021).
“Also recorded” adds a separate entry of the source.

System: corneum of subjects collected using corneum tape
Test: Reduction of light scattering of corneum tape, dark field image of polarization microscope with image analysis
Settings: washed and dried after 3~4 hours
Description: The bright field image is a basic observation method of simply magnifying a sample without a unique optical unit and it is suitable for confirming the structure of the sample, but it is not appropriate for confirming the scattering light. The dark field image is an observation method of inducing the direct illumination light reaching the sample out, and collecting only the scattering light from the sample with objective lens, and the light from the upper light source of the microscope is scattered from the keratinocytes and appears white, and as the scattering decreases, it appears black.
The numerical value of the analyzed image is expressed in the range of 30-200, and the more the white image is, the higher the value is. The average value of the image numerical value of the unapplied site and the average value of the image numerical value of the applied site were obtained, and the reduction ratio of the image numerical value of the applied site compared to the unapplied site was calculated as a percentage.
On the other hand, to compare the effect of the present disclosure by relative values at the same concentration, the solution of urea, glycerol, sucrose, sodium lactate, polyethylene glycol 400 and hexanediol of the same concentration (10% by weight) was prepared and compared and evaluated (FIG. 3a). […]

NC(N)=O [urea]
reduction of light scattering compared to the control group (water) (10% of urea, 100 ul applied): 17% | light scattering of corneum after treatment, washing and drying (photograph, dark field image) (urea applied to corneum tape, control water): the scattering was reduced and it appeared transparent; also recorded: corneum scattering was reduced and appeared black
